# Test system: MV-4-11 cells
# Assay: Gene expression microarray analysis (Affymetrix PrimeView) and GSEA
# Type: cell-based, human
# Set-up: RFU PODN (11730768_x_at) / Fold change /veh PODN (11730768_x_at) / RFU LINC00158 (11744669_a_at) / Fold change /veh LINC00158 (11744669_a_at) / RFU DUSP10 (11751237_a_at) / Fold change /veh DUSP10 (11751237_a_at) / RFU ID3 (11757404_x_at) / Fold change /veh ID3 (11757404_x_at) / RFU PLEKHG5 (11737974_s_at) / Fold change /veh PLEKHG5 (11737974_s_at) / RFU LRRC4B (11730491_at) / Fold change /veh LRRC4B (11730491_at) / RFU GIMAP4 (11747438_a_at) / Fold change /veh GIMAP4 (11747438_a_at) / RFU KRT8 (11758183_x_at) / Fold change /veh KRT8 (11758183_x_at) / RFU CNN1 (11734310_a_at) / Fold change /veh CNN1 (11734310_a_at) / RFU VPS37D (11726825_at) / Fold change /veh VPS37D (11726825_at) / RFU C10orf10 (11716522_x_at) / Fold change /veh C10orf10 (11716522_x_at) / RFU KIR2DL2 /// KIR2DL4 /// KIR2DL5A /// KIR2DL5B /// KIR2DS1 /// KIR2DS2 /// KIR2DS3 /// KIR2DS4 /// KIR3DL3 /// KIR3DL3 /// KIR3DS1 (11738374_at) / Fold change /veh KIR2DL2 /// KIR2DL4 /// KIR2DL5A /// KIR2DL5B /// KIR2DS1 /// KIR2DS2 /// KIR2DS3 /// KIR2DS4 /// KIR3DL3 /// KIR3DL3 /// KIR3DS1 (11738374_at) / RFU C1QL1 (11718748_at) / Fold change /veh C1QL1 (11718748_at) / RFU TMPRSS4 (11747572_a_at) / Fold change /veh TMPRSS4 (11747572_a_at) / RFU HAMP (11756126_x_at) / Fold change /veh HAMP (11756126_x_at) / RFU RNFT2 (11725882_a_at) / Fold change /veh RNFT2 (11725882_a_at) / RFU NR4A2 (11747474_a_at) / Fold change /veh NR4A2 (11747474_a_at) / RFU ABCC12 (11746883_a_at) / Fold change /veh ABCC12 (11746883_a_at) / RFU TMEM136 (11760407_x_at) / Fold change /veh TMEM136 (11760407_x_at) / RFU CLDN22 /// WWC2 (11732394_at) / Fold change /veh CLDN22 /// WWC2 (11732394_at) / RFU HLA-DPB1 (11760878_x_at) / Fold change /veh HLA-DPB1 (11760878_x_at) / RFU SPINT1 (11716480_a_at) / Fold change /veh SPINT1 (11716480_a_at) / RFU GAP43 (11754022_s_at) / Fold change /veh GAP43 (11754022_s_at) / RFU A4GNT (11735810_at) / Fold change /veh A4GNT (11735810_at) / RFU PRB3 (11715151_x_at) / Fold change /veh PRB3 (11715151_x_at) / RFU TUBB4B (11761932_at) / Fold change /veh TUBB4B (11761932_at) / RFU CAPN14 (11732068_a_at) / Fold change /veh CAPN14 (11732068_a_at) / RFU TMCC2 (11721928_a_at) / Fold change /veh TMCC2 (11721928_a_at) / RFU IRGQ (11745062_a_at) / Fold change /veh IRGQ (11745062_a_at) / RFU FAM174B (11720279_a_at) / Fold change /veh FAM174B (11720279_a_at) / RFU TMPRSS4 (11748680_a_at) / Fold change /veh TMPRSS4 (11748680_a_at) / RFU FAM212B (11763350_a_at) / Fold change /veh FAM212B (11763350_a_at) / RFU PLEKHG5 (11743358_a_at) / Fold change /veh PLEKHG5 (11743358_a_at) / RFU ZSCAN30 (11745921_a_at) / Fold change /veh ZSCAN30 (11745921_a_at) / RFU CMKLR1 (11741424_a_at) / Fold change /veh CMKLR1 (11741424_a_at) / RFU LOC101060620 /// MAPK8IP1 (11723275_at) / Fold change /veh LOC101060620 /// MAPK8IP1 (11723275_at) / RFU SPTSSB (11747773_x_at) / Fold change /veh SPTSSB (11747773_x_at) / RFU PRSS12 (11739890_at) / Fold change /veh PRSS12 (11739890_at) / RFU BIN1 (11741810_x_at) / Fold change /veh BIN1 (11741810_x_at) / RFU WNT11 (11732464_a_at) / Fold change /veh WNT11 (11732464_a_at) / RFU C10orf10 (11716521_a_at) / Fold change /veh C10orf10 (11716521_a_at) / RFU C5orf56 (11738089_at) / Fold change /veh C5orf56 (11738089_at) / RFU CYB561 (11721691_x_at) / Fold change /veh CYB561 (11721691_x_at) / RFU ANKRD19P (11752326_a_at) / Fold change /veh ANKRD19P (11752326_a_at) / RFU OR2T12 /// OR2T33 /// OR2T8 (11738714_s_at) / Fold change /veh OR2T12 /// OR2T33 /// OR2T8 (11738714_s_at) / RFU VCAN (11748164_a_at) / Fold change /veh VCAN (11748164_a_at) / RFU JSRP1 (11732532_at) / Fold change /veh JSRP1 (11732532_at) / RFU KRTAP10-11 (11738290_x_at) / Fold change /veh KRTAP10-11 (11738290_x_at) / RFU MYO3A (11730013_a_at) / Fold change /veh MYO3A (11730013_a_at) / RFU EBF3 (11725865_a_at) / Fold change /veh EBF3 (11725865_a_at) / RFU CAMK2N1 (11719241_x_at) / Fold change /veh CAMK2N1 (11719241_x_at) / RFU C5orf56 (11738088_a_at) / Fold change /veh C5orf56 (11738088_a_at) / RFU OLFML3 (11715873_a_at) / Fold change /veh OLFML3 (11715873_a_at) / RFU LOC100653217 /// NTM (11731650_a_at) / Fold change /veh LOC100653217 /// NTM (11731650_a_at) / RFU MAPK11 (11762145_a_at) / Fold change /veh MAPK11 (11762145_a_at) / RFU FIZ1 (11724087_x_at) / Fold change /veh FIZ1 (11724087_x_at) / RFU OASL (11726364_x_at) / Fold change /veh OASL (11726364_x_at) / RFU SOX15 (11748057_x_at) / Fold change /veh SOX15 (11748057_x_at) / RFU CD79A (11719716_a_at) / Fold change /veh CD79A (11719716_a_at) / RFU HIST1H1D (11736915_at) / Fold change /veh HIST1H1D (11736915_at) / RFU CASKIN2 (11723855_a_at) / Fold change /veh CASKIN2 (11723855_a_at) / RFU LOC730098 (11760151_x_at) / Fold change /veh LOC730098 (11760151_x_at) / RFU OR4N2 (11742367_at) / Fold change /veh OR4N2 (11742367_at) / RFU PRRT2 (11749266_a_at) / Fold change /veh PRRT2 (11749266_a_at) / RFU SNX32 (11753110_a_at) / Fold change /veh SNX32 (11753110_a_at) / RFU CDHR5 (11726645_a_at) / Fold change /veh CDHR5 (11726645_a_at) / RFU RCAN1 (11760418_a_at) / Fold change /veh RCAN1 (11760418_a_at) / RFU FAM167A (11723789_a_at) / Fold change /veh FAM167A (11723789_a_at) / RFU FAM26E (11764081_at) / Fold change /veh FAM26E (11764081_at) / RFU ISYNA1 (11749810_s_at) / Fold change /veh ISYNA1 (11749810_s_at) / RFU ACY1 (11761880_at) / Fold change /veh ACY1 (11761880_at) / RFU 11764098_at / Fold change /veh 11764098_at / RFU SAMD14 (11745864_x_at) / Fold change /veh SAMD14 (11745864_x_at) / RFU NPB (11741838_a_at) / Fold change /veh NPB (11741838_a_at) / RFU TMPRSS6 (11731388_a_at) / Fold change /veh TMPRSS6 (11731388_a_at) / RFU KRTAP10-2 (11738614_at) / Fold change /veh KRTAP10-2 (11738614_at) / RFU ARHGAP8 /// PRR5-ARHGAP8 (11727945_x_at) / Fold change /veh ARHGAP8 /// PRR5-ARHGAP8 (11727945_x_at) / RFU KRTAP5-7 /// NADSYN1 (11734609_at) / Fold change /veh KRTAP5-7 /// NADSYN1 (11734609_at) / RFU RASL12 (11751679_a_at) / Fold change /veh RASL12 (11751679_a_at) / RFU CDKN2B (11736163_a_at) / Fold change /veh CDKN2B (11736163_a_at) / RFU PRF1 (11729649_at) / Fold change /veh PRF1 (11729649_at) / RFU, ZNF638 /// ZNF638-IT1 / Fold change vs veh, ZNF638 /// ZNF638-IT1 / RFU, PANK3 / Fold change vs veh, PANK3 / RFU, SH3YL1 / Fold change vs veh, SH3YL1 / RFU, ZEB2 / Fold change vs veh, ZEB2 / RFU, NRIP1 / Fold change vs veh, NRIP1 / RFU, PTTG1IP / Fold change vs veh, PTTG1IP / RFU, CAPN2 / Fold change vs veh, CAPN2 / RFU, MED14 / Fold change vs veh, MED14 / RFU, SNORA58 / Fold change vs veh, SNORA58 / RFU, C1orf63 / Fold change vs veh, C1orf63 / RFU, LRRFIP1 / Fold change vs veh, LRRFIP1 / RFU, NDUFAF7 / Fold change vs veh, NDUFAF7 / RFU, SLC12A2 / Fold change vs veh, SLC12A2 / RFU, IBTK / Fold change vs veh, IBTK / RFU, ESF1 / Fold change vs veh, ESF1 / Fold change vs veh, TMEM50B / RFU, TAOK1 / Fold change vs veh, TAOK1 / RFU, ACBD3 / Fold change vs veh, ACBD3 / RFU, TMA16 / Fold change vs veh, TMA16 / RFU, RWDD3 / Fold change vs veh, RWDD3 / RFU, BCAT1 / Fold change vs veh, BCAT1 / RFU, EDEM3 / Fold change vs veh, EDEM3 / RFU, TMEM33 / Fold change vs veh, TMEM33 / RFU, WDR75 / Fold change vs veh, WDR75 / RFU, AHCTF1 / Fold change vs veh, AHCTF1 / RFU, TFRC / Fold change vs veh, TFRC / RFU, ZDHHC17 / Fold change vs veh, ZDHHC17 / RFU, NOM1 / Fold change vs veh, NOM1 / RFU, ARL8B / Fold change vs veh, ARL8B / RFU, ZBTB11 / Fold change vs veh, ZBTB11 / RFU, TAMM41 / Fold change vs veh, TAMM41 / RFU, KIAA1704 /// LOC100996395 / Fold change vs veh, KIAA1704 /// LOC100996395 / RFU, ING1 / Fold change vs veh, ING1 / RFU, TRMT61B / Fold change vs veh, TRMT61B / RFU, FUBP3 / Fold change vs veh, FUBP3 / RFU, TP53 / Fold change vs veh, TP53 / RFU, TNKS2 / Fold change vs veh, TNKS2 / RFU, ZFP14 / Fold change vs veh, ZFP14 / RFU, ACTR2 / Fold change vs veh, ACTR2 / RFU, PPP3R1 / Fold change vs veh, PPP3R1 / RFU, PIK3R1 / Fold change vs veh, PIK3R1 / RFU, HNRNPA1 / Fold change vs veh, HNRNPA1 / RFU, RNF170 / Fold change vs veh, RNF170 / RFU, ZNF28 / Fold change vs veh, ZNF28 / RFU, RNGTT / Fold change vs veh, RNGTT / RFU, OGT / Fold change vs veh, OGT / RFU, BRD1 / Fold change vs veh, BRD1 / RFU, MARS / Fold change vs veh, MARS / RFU, ZNF655 / Fold change vs veh, ZNF655 / RFU, FAHD1 / Fold change vs veh, FAHD1 / RFU, BDP1 / Fold change vs veh, BDP1 / RFU, LRRCC1 / Fold change vs veh, LRRCC1 / RFU, ARID1A / Fold change vs veh, ARID1A / RFU, ZNF146 / Fold change vs veh, ZNF146 / RFU, ZNF330 / Fold change vs veh, ZNF330 / RFU, GPN3 / Fold change vs veh, GPN3 / RFU, C9orf123 / Fold change vs veh, C9orf123 / RFU, N4BP2L2 / Fold change vs veh, N4BP2L2 / RFU, ARFIP1 / Fold change vs veh, ARFIP1 / RFU, FAM179B / Fold change vs veh, FAM179B / RFU, BCL10 / Fold change vs veh, BCL10 / RFU, UHRF1BP1L / Fold change vs veh, UHRF1BP1L / RFU, BET1 / Fold change vs veh, BET1 / RFU, CNOT2 / Fold change vs veh, CNOT2 / RFU, ZNF268 / Fold change vs veh, ZNF268 / Fold change vs veh, ZNF507 / RFU, DGCR2 / Fold change vs veh, DGCR2 / RFU, WDSUB1 / Fold change vs veh, WDSUB1 / Fold change vs veh, HSP90B1 /// MIR3652 / RFU, ADSS / Fold change vs veh, ADSS / RFU, GK / Fold change vs veh, GK / RFU, ZNF148 / Fold change vs veh, ZNF148 / RFU, TAF9 / Fold change vs veh, TAF9 / RFU, SLC1A5 / Fold change vs veh, SLC1A5 / RFU, SLMO2 / Fold change vs veh, SLMO2 / RFU, ABCC4 / Fold change vs veh, ABCC4 / RFU, LOC101060439 /// RAP1B / Fold change vs veh, LOC101060439 /// RAP1B / RFU, RFX7 / Fold change vs veh, RFX7 / RFU, GTPBP10 / Fold change vs veh, GTPBP10 / RFU, CNEP1R1 / Fold change vs veh, CNEP1R1 / RFU, BIVM-ERCC5 /// ERCC5 / Fold change vs veh, BIVM-ERCC5 /// ERCC5 / RFU, ILF3 / Fold change vs veh, ILF3 / RFU 11762660_at / Fold change /veh 11762660_at / RFU VCAN (11757783_s_at) / Fold change /veh VCAN (11757783_s_at) / RFU DDX43 (11728927_at) / Fold change /veh DDX43 (11728927_at) / RFU KRT8 (11758188_x_at) / Fold change /veh KRT8 (11758188_x_at) / RFU NKD1 (11759106_at) / Fold change /veh NKD1 (11759106_at) / RFU SRD5A1 (11742802_a_at) / Fold change /veh SRD5A1 (11742802_a_at) / RFU TPSAB1 /// TPSB2 (11721975_s_at) / Fold change /veh TPSAB1 /// TPSB2 (11721975_s_at) / RFU GSTM3 (11746129_a_at) / Fold change /veh GSTM3 (11746129_a_at) / RFU IL23R (11737362_x_at) / Fold change /veh IL23R (11737362_x_at) / RFU TMEM51 (11727254_a_at) / Fold change /veh TMEM51 (11727254_a_at) / RFU PIWIL2 (11732686_x_at) / Fold change /veh PIWIL2 (11732686_x_at) / RFU ORM1 (11744905_x_at) / Fold change /veh ORM1 (11744905_x_at) / RFU CCDC152 (11743942_at) / Fold change /veh CCDC152 (11743942_at) / RFU ECM1 (11717891_a_at) / Fold change /veh ECM1 (11717891_a_at) / RFU IL23R (11748794_a_at) / Fold change /veh IL23R (11748794_a_at) / RFU TNFAIP8L3 (11732012_x_at) / Fold change /veh TNFAIP8L3 (11732012_x_at) / RFU MBOAT4 (11741988_at) / Fold change /veh MBOAT4 (11741988_at) / RFU 11764193_at / Fold change /veh 11764193_at / RFU TMEM53 (11763286_at) / Fold change /veh TMEM53 (11763286_at) / RFU MAGEB2 (11727129_at) / Fold change /veh MAGEB2 (11727129_at) / RFU TMEM200A (11744735_a_at) / Fold change /veh TMEM200A (11744735_a_at) / RFU CCDC152 (11751479_a_at) / Fold change /veh CCDC152 (11751479_a_at) / RFU FAM211A (11726209_a_at) / Fold change /veh FAM211A (11726209_a_at) / RFU RGS16 (11746705_a_at) / Fold change /veh RGS16 (11746705_a_at) / RFU VCAN (11755009_s_at) / Fold change /veh VCAN (11755009_s_at) / RFU RHOB (11743442_s_at) / Fold change /veh RHOB (11743442_s_at) / RFU RGS16 (11720943_a_at) / Fold change /veh RGS16 (11720943_a_at) / RFU RGS16 (11720944_at) / Fold change /veh RGS16 (11720944_at) / RFU, VPS4B / Fold change vs veh, VPS4B / RFU, CREB1 / Fold change vs veh, CREB1 / RFU, DNAJC13 / Fold change vs veh, DNAJC13 / RFU, GNAQ / Fold change vs veh, GNAQ / RFU, CDK5R1 / Fold change vs veh, CDK5R1 / RFU, ZRANB3 / Fold change vs veh, ZRANB3 / RFU, CUL4A / Fold change vs veh, CUL4A / RFU, CCNY / Fold change vs veh, CCNY / RFU, UFL1 / Fold change vs veh, UFL1 / RFU, COG3 / Fold change vs veh, COG3 / RFU, DIAPH2 / Fold change vs veh, DIAPH2 / RFU, SKA2 / Fold change vs veh, SKA2 / RFU, AFF3 / Fold change vs veh, AFF3 / RFU, LMF1 / Fold change vs veh, LMF1 / RFU, IPO11 / Fold change vs veh, IPO11 / RFU, DFFB / Fold change vs veh, DFFB / RFU, FOXP1 / Fold change vs veh, FOXP1 / RFU, CARD8 / Fold change vs veh, CARD8 / RFU, STRN3 / Fold change vs veh, STRN3 / RFU, ADK / Fold change vs veh, ADK / RFU, RASSF2 / Fold change vs veh, RASSF2 / RFU, WIPF1 / Fold change vs veh, WIPF1 / RFU, LARP1B / Fold change vs veh, LARP1B / RFU, RASA1 / Fold change vs veh, RASA1 / RFU, RB1 / Fold change vs veh, RB1 / RFU, PPFIA1 / Fold change vs veh, PPFIA1 / RFU, MAT2A / Fold change vs veh, MAT2A / RFU, CCT5 / Fold change vs veh, CCT5 / RFU, WDR92 / Fold change vs veh, WDR92 / RFU, CUX1 / Fold change vs veh, CUX1 / RFU, TTC7A / Fold change vs veh, TTC7A / RFU, TMEM135 / Fold change vs veh, TMEM135 / RFU, DEPTOR / Fold change vs veh, DEPTOR / RFU, CPM / Fold change vs veh, CPM / RFU, DNAJB6 / Fold change vs veh, DNAJB6 / RFU, CACNA2D3 / Fold change vs veh, CACNA2D3 / RFU, DTX4 / Fold change vs veh, DTX4 / RFU, TFCP2 / Fold change vs veh, TFCP2 / RFU, GMCL1 /// GMCL1P1 / Fold change vs veh, GMCL1 /// GMCL1P1 / RFU, AEBP2 / Fold change vs veh, AEBP2 / RFU, SNHG1 /// SNORD22 /// SNORD25 /// SNORD26 /// SNORD27 /// SNORD28 /// SNORD29 /// SNORD31 / Fold change vs veh, SNHG1 /// SNORD22 /// SNORD25 /// SNORD26 /// SNORD27 /// SNORD28 /// SNORD29 /// SNORD31 / Fold change (Aza/veh), C12orf56 (ProbeSet 11735607_a_at) / Fold change (ACY-1035/veh), C12orf56 (ProbeSet 11735607_a_at) / Fold change (Aza/veh), FGFR1OP (ProbeSet 11751329_s_at) / Fold change (ACY-1035/veh), FGFR1OP (ProbeSet 11751329_s_at) / Fold change (Aza/veh), VPS36 (ProbeSet 11739960_a_at) / Fold change (ACY-1035/veh), VPS36 (ProbeSet 11739960_a_at) / RFU SYPL1 (11715823_x_at) / Fold change /veh SYPL1 (11715823_x_at) / RFU IGFBP7 (11715501_s_at) / Fold change /veh IGFBP7 (11715501_s_at) / RFU REEP3 (11722064_at) / Fold change /veh REEP3 (11722064_at) / RFU IGLL1 (11728026_x_at) / Fold change /veh IGLL1 (11728026_x_at): dose or concentration left out as unconfirmed
# Conditions: ProbeSet 11718701_a_at; LIST B
smiles,measurement,value
Nc1ncn([C@@H]2O[C@H](CO)[C@@H](O)[C@H]2O)c(=O)n1 [azacitidine],"Fold change vs veh, ARFIP1",1.05
